Measurements as given in ChEMBL document CHEMBL1144455, “A small molecule-kinase interaction map for clinical kinase inhibitors” (Nat Biotechnol, 2005).

Legend:
[1] = target: Serine/threonine-protein kinase PAK 4 (Homo sapiens, UniProt O96013)
[2] = target: Calcium/calmodulin-dependent protein kinase type II subunit alpha (Homo sapiens, UniProt Q9UQM7)
[3] = target: Serine/threonine-protein kinase pim-1 (Homo sapiens, UniProt P11309)
Ephrin type-A receptor 3 = target: T1, Ephrin type-A receptor 3 (Homo sapiens, UniProt P29320)
T1 sequence (P29320 whole entry): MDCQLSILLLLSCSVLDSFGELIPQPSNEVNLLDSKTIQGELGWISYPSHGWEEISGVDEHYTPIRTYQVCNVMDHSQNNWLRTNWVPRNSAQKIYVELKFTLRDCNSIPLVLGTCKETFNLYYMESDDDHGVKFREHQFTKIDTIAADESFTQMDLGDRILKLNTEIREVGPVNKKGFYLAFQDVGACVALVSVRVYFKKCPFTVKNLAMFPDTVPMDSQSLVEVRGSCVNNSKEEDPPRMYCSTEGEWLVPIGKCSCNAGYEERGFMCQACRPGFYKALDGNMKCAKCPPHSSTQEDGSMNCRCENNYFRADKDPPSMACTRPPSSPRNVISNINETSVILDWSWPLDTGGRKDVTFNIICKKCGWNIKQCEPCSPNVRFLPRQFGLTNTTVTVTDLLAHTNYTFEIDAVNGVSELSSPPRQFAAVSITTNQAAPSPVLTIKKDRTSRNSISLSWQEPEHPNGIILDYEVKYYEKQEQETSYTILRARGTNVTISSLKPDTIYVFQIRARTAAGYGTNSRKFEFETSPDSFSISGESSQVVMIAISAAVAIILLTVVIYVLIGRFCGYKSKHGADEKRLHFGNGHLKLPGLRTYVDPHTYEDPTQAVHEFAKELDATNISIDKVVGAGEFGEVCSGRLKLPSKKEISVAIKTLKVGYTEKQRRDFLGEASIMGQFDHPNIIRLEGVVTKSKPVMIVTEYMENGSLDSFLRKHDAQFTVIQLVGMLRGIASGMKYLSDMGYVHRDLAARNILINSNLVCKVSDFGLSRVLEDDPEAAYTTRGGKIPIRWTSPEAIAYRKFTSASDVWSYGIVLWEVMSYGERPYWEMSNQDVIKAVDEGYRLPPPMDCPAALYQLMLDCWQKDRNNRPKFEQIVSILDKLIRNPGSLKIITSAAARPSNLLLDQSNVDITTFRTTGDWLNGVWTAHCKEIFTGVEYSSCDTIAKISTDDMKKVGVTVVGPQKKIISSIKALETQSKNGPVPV

[4] = target: T2, Serine/threonine-protein kinase 4 (Homo sapiens, UniProt Q13043)
T2 sequence (Q13043 whole entry): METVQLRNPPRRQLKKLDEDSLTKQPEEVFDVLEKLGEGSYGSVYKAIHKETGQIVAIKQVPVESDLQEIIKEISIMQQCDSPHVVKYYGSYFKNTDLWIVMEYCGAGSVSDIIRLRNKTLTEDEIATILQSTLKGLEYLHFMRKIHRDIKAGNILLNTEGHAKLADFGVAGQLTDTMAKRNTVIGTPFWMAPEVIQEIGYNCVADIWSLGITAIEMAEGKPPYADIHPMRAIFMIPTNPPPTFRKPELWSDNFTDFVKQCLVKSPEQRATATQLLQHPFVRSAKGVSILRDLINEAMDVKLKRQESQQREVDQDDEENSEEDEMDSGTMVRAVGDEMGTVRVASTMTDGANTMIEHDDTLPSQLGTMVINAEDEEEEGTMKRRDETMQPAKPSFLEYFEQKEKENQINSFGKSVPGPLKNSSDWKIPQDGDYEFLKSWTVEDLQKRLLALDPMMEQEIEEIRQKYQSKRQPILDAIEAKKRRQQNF

[5] = target: Fibroblast growth factor receptor 1 (Homo sapiens, UniProt P11362)
Fibroblast growth factor receptor 1, sequence (P11362 whole entry): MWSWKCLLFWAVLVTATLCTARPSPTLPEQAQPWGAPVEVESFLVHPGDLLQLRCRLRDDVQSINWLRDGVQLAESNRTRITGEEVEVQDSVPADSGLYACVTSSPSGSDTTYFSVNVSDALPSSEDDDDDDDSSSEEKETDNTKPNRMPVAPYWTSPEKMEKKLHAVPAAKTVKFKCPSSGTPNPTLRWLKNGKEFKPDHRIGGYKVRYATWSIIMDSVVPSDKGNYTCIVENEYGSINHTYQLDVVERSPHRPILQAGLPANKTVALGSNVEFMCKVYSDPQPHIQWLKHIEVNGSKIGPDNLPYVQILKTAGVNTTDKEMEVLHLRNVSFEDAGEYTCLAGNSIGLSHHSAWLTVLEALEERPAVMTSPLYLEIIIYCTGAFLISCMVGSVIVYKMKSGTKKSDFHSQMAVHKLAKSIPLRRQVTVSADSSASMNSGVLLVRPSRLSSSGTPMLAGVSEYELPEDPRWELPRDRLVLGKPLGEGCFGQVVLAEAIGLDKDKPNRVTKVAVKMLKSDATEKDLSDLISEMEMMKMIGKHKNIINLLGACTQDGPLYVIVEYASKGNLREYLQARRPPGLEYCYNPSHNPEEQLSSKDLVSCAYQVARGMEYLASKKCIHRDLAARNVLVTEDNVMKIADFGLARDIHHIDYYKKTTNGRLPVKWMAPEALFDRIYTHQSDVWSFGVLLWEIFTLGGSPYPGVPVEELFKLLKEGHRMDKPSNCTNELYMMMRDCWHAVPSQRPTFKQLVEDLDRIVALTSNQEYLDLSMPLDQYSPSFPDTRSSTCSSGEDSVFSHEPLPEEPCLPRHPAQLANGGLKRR

[6] = target: T3, Serine/threonine-protein kinase 3 (Mus musculus, UniProt Q9JI10)
T3 sequence (Q9JI10 whole entry): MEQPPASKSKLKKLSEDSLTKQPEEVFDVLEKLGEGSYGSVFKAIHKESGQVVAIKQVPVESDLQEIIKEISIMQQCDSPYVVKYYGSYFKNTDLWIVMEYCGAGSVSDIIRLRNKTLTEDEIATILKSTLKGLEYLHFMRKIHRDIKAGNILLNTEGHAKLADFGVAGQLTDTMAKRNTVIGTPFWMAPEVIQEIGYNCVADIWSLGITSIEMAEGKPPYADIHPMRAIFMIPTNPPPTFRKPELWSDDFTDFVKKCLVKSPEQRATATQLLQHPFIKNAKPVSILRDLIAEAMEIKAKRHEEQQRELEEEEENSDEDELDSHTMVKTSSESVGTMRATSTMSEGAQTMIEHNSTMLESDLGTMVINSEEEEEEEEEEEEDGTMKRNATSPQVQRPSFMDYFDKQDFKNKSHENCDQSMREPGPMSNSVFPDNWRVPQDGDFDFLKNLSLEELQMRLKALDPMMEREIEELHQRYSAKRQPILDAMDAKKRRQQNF

Measured: Kd

Serine/threonine-protein kinase PAK 4, sequence (O96013 whole entry): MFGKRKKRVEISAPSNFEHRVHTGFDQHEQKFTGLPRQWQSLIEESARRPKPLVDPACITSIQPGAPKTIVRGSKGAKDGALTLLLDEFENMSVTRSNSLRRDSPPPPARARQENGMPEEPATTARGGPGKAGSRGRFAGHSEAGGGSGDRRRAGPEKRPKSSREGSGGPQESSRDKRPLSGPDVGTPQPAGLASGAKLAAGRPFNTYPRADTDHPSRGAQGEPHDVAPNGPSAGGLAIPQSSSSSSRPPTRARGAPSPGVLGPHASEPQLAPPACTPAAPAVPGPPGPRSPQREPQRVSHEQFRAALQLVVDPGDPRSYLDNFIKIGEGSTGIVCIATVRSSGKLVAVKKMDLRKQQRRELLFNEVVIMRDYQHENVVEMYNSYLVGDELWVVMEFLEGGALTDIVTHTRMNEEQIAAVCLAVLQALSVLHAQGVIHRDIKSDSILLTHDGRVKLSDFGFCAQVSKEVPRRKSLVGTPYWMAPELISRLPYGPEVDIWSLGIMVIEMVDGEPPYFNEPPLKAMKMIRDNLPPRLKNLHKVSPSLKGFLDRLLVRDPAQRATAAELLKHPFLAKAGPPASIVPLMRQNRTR
Calcium/calmodulin-dependent protein kinase type II subunit alpha, sequence (Q9UQM7 whole entry): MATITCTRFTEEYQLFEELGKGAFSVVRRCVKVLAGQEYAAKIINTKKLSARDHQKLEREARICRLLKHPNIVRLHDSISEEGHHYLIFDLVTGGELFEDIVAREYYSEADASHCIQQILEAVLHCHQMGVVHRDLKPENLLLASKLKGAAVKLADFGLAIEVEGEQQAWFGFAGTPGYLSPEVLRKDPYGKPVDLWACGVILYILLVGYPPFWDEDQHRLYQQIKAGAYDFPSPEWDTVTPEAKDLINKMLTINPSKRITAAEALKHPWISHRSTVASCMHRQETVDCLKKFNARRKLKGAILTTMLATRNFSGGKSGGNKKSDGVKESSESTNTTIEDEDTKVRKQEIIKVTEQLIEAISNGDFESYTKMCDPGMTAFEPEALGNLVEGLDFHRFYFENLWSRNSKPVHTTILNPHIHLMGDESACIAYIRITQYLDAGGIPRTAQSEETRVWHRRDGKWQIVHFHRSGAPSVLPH
Serine/threonine-protein kinase pim-1, sequence (P11309 whole entry): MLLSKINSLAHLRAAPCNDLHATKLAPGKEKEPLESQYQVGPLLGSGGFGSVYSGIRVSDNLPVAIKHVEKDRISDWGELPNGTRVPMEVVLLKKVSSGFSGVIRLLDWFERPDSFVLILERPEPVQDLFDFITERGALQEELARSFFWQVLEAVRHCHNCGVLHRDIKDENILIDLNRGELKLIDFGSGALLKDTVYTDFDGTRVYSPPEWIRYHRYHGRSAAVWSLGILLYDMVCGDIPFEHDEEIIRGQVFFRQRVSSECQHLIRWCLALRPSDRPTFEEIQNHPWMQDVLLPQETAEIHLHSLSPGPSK

C#Cc1cccc(Nc2ncnc3cc(OCCOC)c(OCCOC)cc23)c1 [ERLOTINIB]
Not Active: [1] | [2] | [3] | Ephrin type-A receptor 3 | [4] | [5] | [6]

Cc1ccc(NC(=O)c2ccc(CN3CCN(C)CC3)cc2)cc1Nc1nccc(-c2cccnc2)n1 [IMATINIB]
Not Active: [1] | [2] | [3] | Ephrin type-A receptor 3 | [4] | [5] | [6]

O=c1ncn2nc(Sc3ccc(F)cc3F)ccc2c1-c1c(Cl)cccc1Cl [NEFLAMAPIMOD]
Not Active: [1] | [2] | [3] | Ephrin type-A receptor 3 | [4] | [5] | [6]

CCOc1cc2ncc(C#N)c(Nc3ccc(F)c(Cl)c3)c2cc1NC(=O)/C=C/CN(C)C [PELITINIB]
Not Active: [1] | [2] | [3] | [5]

Oc1ccc(-c2nc(-c3ccc(F)cc3)c(-c3ccncc3)[nH]2)cc1 [SB-202190]
Not Active: [1] | [2] | [3] | Ephrin type-A receptor 3 | [4] | [5] | [6]

C[S+]([O-])c1ccc(-c2nc(-c3ccc(F)cc3)c(-c3ccncc3)[nH]2)cc1 (configuration not stated) [SB-203580]
Not Active: [1] | [2] | [3] | Ephrin type-A receptor 3 | [4] | [5] | [6]

CC[C@H](CO)Nc1nc(NCc2ccccc2)c2ncn(C(C)C)c2n1 [SELICICLIB]
Not Active: [1] | [2] | [3] | Ephrin type-A receptor 3 | [4] | [5] | [6]

Oc1c2ccccc2c2c3c(cccc13)N=N2 [SP-600125]
Not Active: [1] | [2] | [3] | [5]

COc1cc2c(N3CCN(C(=O)Nc4ccc(OC(C)C)cc4)CC3)ncnc2cc1OCCCN1CCCCC1 [TANDUTINIB]
Not Active: [1] | [2] | [3] | Ephrin type-A receptor 3 | [4] | [5] | [6]
